# Where two headings read alike, the source gives them in different places.
# Legend:
# [1] = tested on: HeLa-HRE cells; assay: Resazurin cytotoxicity assay, HeLa-HRE, 48 h; details: for IC50(HeLa)/IC50(A549): ratio HeLa vs A549
# Method: (§1) We used A549 lung cancer and HeLa cervical cancer cell lines for initial screening of the prodrugs.
# HeLa-HRE cells were treated with prodrugs of the
# Dose -response curves were calculated from at least 27 incremental single concentrations over a
# range of at least three log units.
# [2] = Cell-free HPLC reduction assay (GSH or TCEP challenge); details: 5 mM GSH (50 equiv), 24 h
# Text: These performance features had not been tested with naphthols, so we used HPLC to test them and show their reduction-based activation sequence (Figure 2c and Figures S4–S6).
# In brief, treatment with the quantitative reductant TCEP triggered a reaction cascade matching the activation sequence we expected (Figure 2c): dichalcogenides are reduced to dichalcogenols that cyclize, giving the naphthol cargos (plus thiol trigger byproduct) that evolve to the activated cyclopropanes (Figure 5).
# The mobile phase consists of eluent A: water (analytical
# grade, 0.1% formic acid) and eluent B: MeCN (analytical grade, 0.1% formic acid).
# using a gradient of 10% B t o 90% B over 10 min.
# Reduction assay using TCEP and GSH
# tris(2-carboxyethyl)phospine) (TCEP, 5 mM in TE-bu f f e r ) , or reduced glut at hione (GSH, 50 mM in TE-buf f er) or
# else blank TE-buffer. Final concentrations: Prodrug (0.1 mM) , TCEP ( 0. 5 mM) , G SH ( 5 mM). The blank sample
# was measured after 10 min (“pure”) and 24 h (“O H-“) to control for basic hydrolysis. The GSH sample was
# measured after 24 h to control for monothiol-based reductive release. The TCEP sample was measured at several […]
# extracted for each of the intermediate species and final r elease products. Peak areas were calculated relative to
# the sum of all peak areas at 320 nm to quantify individual species at each timepoints. […]
# [3] = tested on: NCI-60 standardized human tumor cell line panel; assay: cells; type: cell-based; details: AZI sheet, read-out: GI50
# [4] = tested on: A549 cells; assay: Resazurin cytotoxicity assay, A549, 72 h; details: read-out: IC50(nM): A549
# Method: as §1
# Fi gure S9: Cell ular resazurin-based cytotoxi ci ty as s a y.
# Dose -response curves were calculated from at least 27 incremental single concentrations over a range
# of at least three log units. Individual experiments with annotated experiment numbers are shown for each prodrug
# [5] = tested on: Balb/c mice; assay: Single-dose toxicity study; type: in vivo; details: week following treatment
# Method: To test if low prodrug activation could enable in vivo use, we performed dosing and toxicity studies in Balb/c mice, comparing the toxicity and the tolerated dosing of low-reducible SS60-CBI-AZI or substantially reducible SeS60-CBI-AZI and to those of non-reducible carbamate O56-CBI-AZI. Single-dose toxicity was studied over the range 0.1–10 mg/kg.
# Methods for in vivo animal studies
# (§2) All in vivo studies were conducted as contract research together with React ionBiology Eur ope G mbH (Freiburg,
# (§3) Germany), EPO – Experimental Pharmacology & Oncology GmbH (Berlin, Germany); Bient a/ Enam ine Lt d. (Kyiv,
# (§4) Ukraine) and Leit at – Managing Technologies (Barcelona, Spain), adhering to the respective animal welfare
# (§5) Mice were kept in individually ventilated cages at constant temperature (22±2 °C, air-conditioned) and humidity (45
# (§6) – 65%), under optimum hygienic conditions with 10 – 15 air changes per hour. A cycle of 12 h artificial fluorescent
# (§7) light ning and 12 h darkness was applied , and animal behavior was monitored daily throughout the studies. The
# (§8) animals received food and water ad libit um.
# (§9) To evaluate toxicity of selected compounds, dose level selection studies within dose range from 0.1 mg/kg to
# 10 mg/kg were performed by intravenous administration into Balb /c mice. […]
# were monitored after each drug administration and three times per week for 21 consecutive days after the first […]
# [6] = tested on: Balb/c mice; assay: Moderate repeated dosing tolerability study; type: in vivo
# Method: Next, a moderate repeated dosing study in Balb/c mice (3 animals per group) tested the importance of solubilizing the prodrugs.
# Methods for in vivo animal studies
# as §2, §3, §4, §5, §6, §7, §8, §9
# 10 mg/kg were performed by intravenous administration into Balb /c mice. Each dose for each tested compound
# was administered in one mouse.
# changes and clinical signs of gross toxicity three tim es per week for 21 consecutive days of post-dosing period.
# After the first week of observation without adverse events, two doses for each test compound were selected as
# tolerated. These two doses were tested in two additional mice for confirmation of toler ability. Additional animals
# consecutive days of post-dosing period. Toxicity of repeated administrations was tested wit h t hr ee repeat ed pr e-
# selected doses at a dosing interval of 7 days. Mortality, body weight changes, and clinical signs of gross toxicity
# were monitored after each drug administration and three times per week for 21 consecutive days after the first
# compound administration. Bleed ing with subsequent hematological tests, clinical chemistry parameters analysis
# (ALT, AST, ALP, LDH, creatine kinase, creatinine, urea, cholesterol, and triglycerides), and necropsy with
# macroscopic inspection were performed on the terminal day of the repeated dosing-regime.
# To test tolerability of selected compounds in vivo, female BALB/c mice were randomized by weight into seven
# groups of t hree animals.
# [7] = In vivo plasma pharmacokinetics; details: Balb/c mice, i.v. 5 mg/kg
# Method: We first examined the in vivo pharmacokinetics of representative compound SS60-CBI-AZI in Balb/c mice after i.v. administration at 5 mg/kg (3 animals per time point, 4 time points from 5 to 90 min post injection).
# as §5, §6, §7, §8
# Pharm acokinetics o f SS60-CBI-AZI
# Following single dose intravenous administration, levels of SS60-CBI-AZI in blood plasm a over t im e wer e
# det ermined by HPLC-MS/MS. Treatm ent gr oups wer e three Balb/c mice (randomly assigned ) per t ime point (t otal:
# Blood collection was performed from the orbital sinus in
# microtainers containing K 2EDTA. All samples were immediately processed, flash -frozen and stored at -70 °C unt il
# 400 ng/mL in et hanol). After mixing by pipetting and centrifuging for 4 min at 6000 rpm, 2 μL of each supernatant
# was injected into LC-MS/MS (Shimadzu LC: 2 isocratic pumps LC-10ADvp, autosampler SIL-20AC, sub-controller
# FCV-14AH, degasser DGU-14 A; AB Sciex MS: API 3000 ( tr iple-quadrupole), ESI). The data acquisition and system […]
# [8] = tested on: mouse; assay: Tolerability for repeated dose administration in vivo (summary); details: repeated dose administration
# [9] = tested on: Balb/c mice with 4T1 tumors; assay: 4T1-bearing tolerability study; details: 10 mg/kg
# Text: Finally, another large study intended for antitumor efficacy also had to be examined only in terms of tolerability.
# (a,c, e, g, h): BxPC-3 subcutaneous xenograft in NMRi mice, 10 mice per group; ( b, d, f,i ,j): 4T1 murine breast cancer syngeneic orthotopic implant in Balb/c mice,
# (a,b) Bodyweights (means); (c, d) absolute tumor volumes (medians); (e,f) tumor volumes relative to individual volumes at start of treatment (medians); (g,h,i ,j) absolute and relative tumor volumes at final day of study (datapoints with means and 95% confidence interval). All tumor measurements are in vivo caliper measurements. Dotted vertical lines indicate days of treatment. All CBI groups dosed at 3 mg/kg i. v., ca . 1 0 0 µL injection volume in vehicle (10:90 DMSO:saline).
# [10] = tested on: 4T1 murine breast cancer; assay: 4T1 orthotopic breast cancer efficacy study; type: in vivo; details: 4T1 in Balb/c mice; CBI prodrugs 3 mg/kg
# Text: We then moved to in vivo anticancer efficacy trials of these prodrugs. […] As one model we chose the syngeneic murine breast cancer 4T1, implanted orthotopically (at the native tissue site) into the fat pad of immunocompetent Balb/c mice (i.e., offering a realistic immune system and tumor microenvironment). This model gives rapid, aggressive tumor growth.[52] As a second model, we chose to xenograft human BxPC-3 pancreatic adenocarcinoma cells into immunodeficient hosts. This is a slower-growing model, with low metastasis, that can be more resistant to traditional antimitotic therapy.[53],[54] Mice were implanted, randomized once tumors reached 100–150 mm^3 volume, and treated once or twice weekly with prodrug or control compounds typically at 3 mg/kg (8–12 animals per condition, Figure 10a). Tumors were measured by caliper during the assay and weighed at termination.
# 7. 2. in vivo efficacy mouse studies
# 4T1 efficacy study BxPC-3 efficacy study a Absolute tumour volumes b Absolute tumour volumes […]
# days after tumor implantation days after tumor implantation c Relative tumour volumes d Relative tumour volumes […]
# e RTV! fi"al day of followu# f ex viv tumour weights g RTV! fi"al day of followu# h ex viv tumour weights (. mice remain in all *roups) (for animals left at day 31)(all *roups have statistical power)(day "2/ all animals left) […]
# vehicle(1x)(1x)(1x) (2x)(2x) […]
# P-##"0-#$%-&'%P-!!"0-#$%-&'%P-!!"0-#$%-()%P-!!"0-#$%-&'% %rinotecan %rinotecan P-##"0-#$%-&'%P-!!"0-#$%-()%P-!!"0-#$%-&'%P-!!"0-#$%-&'% P-!!"0-#$%-&'% P-!!"0-#$%-&'% […]
# i Body weights $ Body weights […]
# implant in Balb/c mice, 8 mice per group; (b, d,g,h,j): BxPC-3 subcutaneous xenograft in NMRi mice, 8 mice per […]
# treatment (m e d ia n); (e,g) in vivo caliper measurement of relative tum or volumes at final day of followup [last day when all mice in all groups remain in the study] […]
# tumor weights at termination of study (only mice not terminated on ethical grounds before the indicated days were harvested); (i,j) Bodyweights (means).
# (BxPC-3 study); dotted vertical lines indicate days of [potential] treatment.
# [11] = read-out: IC50(nM): HeLa, HeLa, 48 h
smiles,measurement,setting,value
CN1CCN(C(=O)Oc2cc3c(c4ccccc24)C(CCl)CN3C(=O)c2cc3cc(OCCCN4CCC4)ccc3[nH]2)C2CSSCC21 (mixture of isomers) [Me-SS66C-CBI-AZI],IC50(HeLa)/IC50(A549),[1],33
same,IC50,[1]; [11],400 nM
same,release/reduction on GSH challenge,[2],no disulfide reduction/prodrug release was indicated
same,GI50,[3]; 786-0,8.8 nM
same,GI50,[3]; A498,26 nM
same,GI50,[3]; A549/ATCC,5 nM
same,GI50,[3]; ACHN,2 nM
same,GI50,[3]; BT-549,54 nM
same,GI50,[3]; CAKI-1,8.2 nM
same,GI50,[3]; CCRF-CEM,18 nM
same,GI50,[3]; COLO 205,22 nM
same,GI50,[3]; DU-145,5.3 nM
same,GI50,[3]; EKVX,27 nM
same,GI50,[3]; HCC-2998,22 nM
same,GI50,[3]; HCT-15,11 nM
same,GI50,[3]; HCT-116,46 nM
same,GI50,[3]; HL-60(TB),29 nM
same,GI50,[3]; HOP-62,9.6 nM
same,GI50,[3]; HOP-92,53 nM
same,GI50,[3]; HT29,15 nM
same,GI50,[3]; IGROV1,6.6 nM
same,GI50,[3]; K-562,17 nM
same,GI50,[3]; KM12,90 nM
same,GI50,[3]; LOX IMVI,3.2 nM
same,GI50,[3]; M14,14 nM
same,GI50,[3]; MALME-3M,19 nM
same,GI50,[3]; MCF7,1.5 nM
same,GI50,[3]; MDA-MB-231,37.8 nM
same,GI50,[3]; MDA-MB-435,25 nM
same,GI50,[3]; MDA-MB-468,5.3 nM
same,GI50,[3]; MOLT-4,14 nM
same,GI50,[3]; NCI-H23,4.3 nM
same,GI50,[3]; NCI-H226,6.9 nM
same,GI50,[3]; NCI-H460,1.6 nM
same,GI50,[3]; NCI-H522,28 nM
same,GI50,[3]; OVCAR-3,51 nM
same,GI50,[3]; OVCAR-4,74 nM
same,GI50,[3]; OVCAR-5,23 nM
same,GI50,[3]; OVCAR-8,12 nM
same,GI50,[3]; PC-3,34 nM
same,GI50,[3]; RPMI-8226,35 nM
same,GI50,[3]; RXF 393,4.2 nM
same,GI50,[3]; SF-268,20 nM
same,GI50,[3]; SF-295,2.1 nM
same,GI50,[3]; SF-539,22 nM
same,GI50,[3]; SK-MEL-2,31 nM
same,GI50,[3]; SK-MEL-5,19 nM
same,GI50,[3]; SK-MEL-28,22 nM
same,GI50,[3]; SK-OV-3,30 nM
same,GI50,[3]; SN12C,12 nM
same,GI50,[3]; SNB-19,18 nM
same,GI50,[3]; SR,2.7 nM
same,GI50,[3]; SW-620,18 nM
same,GI50,[3]; T-47D,15 nM
same,GI50,[3]; TK-10,36 nM
same,GI50,[3]; U251,3.6 nM
same,GI50,[3]; UACC-62,4.2 nM
same,GI50,[3]; UACC-257,34 nM
same,GI50,[3]; UO-31,12 nM
same,IC50,[4],12 nM
CN1CCN(C(=O)Oc2cc3c(c4ccccc24)C(CCl)CN3C(=O)c2cc3cc(OCCCN4CCC4)ccc3[nH]2)C2CSSCC21 (mixture of isomers) [Me-SS66T-CBI-AZI],IC50(HeLa)/IC50(A549),[1],1.0
same,IC50,[1]; [11],49 nM
same,release/reduction on GSH challenge,[2],partial reduction
same,GI50,[3]; 786-0,13 nM
same,GI50,[3]; A498,15 nM
same,GI50,[3]; A549/ATCC,1.8 nM
same,GI50,[3]; ACHN,2.4 nM
same,GI50,[3]; BT-549,21 nM
same,GI50,[3]; CAKI-1,2.8 nM
same,GI50,[3]; CCRF-CEM,7.4 nM
same,GI50,[3]; COLO 205,15 nM
same,GI50,[3]; DU-145,3.9 nM
same,GI50,[3]; EKVX,12 nM
same,GI50,[3]; HCC-2998,3.5 nM
same,GI50,[3]; HCT-15,3.8 nM
same,GI50,[3]; HCT-116,6.8 nM
same,GI50,[3]; HL-60(TB),9.9 nM
same,GI50,[3]; HOP-62,5.2 nM
same,GI50,[3]; HOP-92,18 nM
same,GI50,[3]; HT29,8.3 nM
same,GI50,[3]; IGROV1,17 nM
same,GI50,[3]; K-562,4.4 nM
same,GI50,[3]; KM12,16 nM
same,GI50,[3]; LOX IMVI,2.2 nM
same,GI50,[3]; M14,5.6 nM
same,GI50,[3]; MALME-3M,6.4 nM
same,GI50,[3]; MDA-MB-231,19.2 nM
same,GI50,[3]; MDA-MB-435,13 nM
same,GI50,[3]; MDA-MB-468,2.6 nM
same,GI50,[3]; MOLT-4,4.5 nM
same,GI50,[3]; NCI-H23,1.7 nM
same,GI50,[3]; NCI-H226,3.4 nM
same,GI50,[3]; NCI-H522,11 nM
same,GI50,[3]; OVCAR-3,27 nM
same,GI50,[3]; OVCAR-4,28 nM
same,GI50,[3]; OVCAR-5,6.9 nM
same,GI50,[3]; OVCAR-8,3.3 nM
same,GI50,[3]; PC-3,19.7 nM
same,GI50,[3]; RPMI-8226,23 nM
same,GI50,[3]; RXF 393,5.7 nM
same,GI50,[3]; SF-268,9 nM
same,GI50,[3]; SF-295,2.2 nM
same,GI50,[3]; SF-539,5.2 nM
same,GI50,[3]; SK-MEL-2,19 nM
same,GI50,[3]; SK-MEL-5,2.3 nM
same,GI50,[3]; SK-MEL-28,4.8 nM
same,GI50,[3]; SK-OV-3,15 nM
same,GI50,[3]; SN12C,10 nM
same,GI50,[3]; SNB-19,5.8 nM
same,GI50,[3]; SR,1.7 nM
same,GI50,[3]; SW-620,2.3 nM
same,GI50,[3]; T-47D,15 nM
same,GI50,[3]; TK-10,22 nM
same,GI50,[3]; U251,1.6 nM
same,GI50,[3]; UACC-62,2.2 nM
same,GI50,[3]; UACC-257,15 nM
same,GI50,[3]; UO-31,3.8 nM
same,IC50,[4],51 nM
O=C(c1cc2cc(OCCCN3CCC3)ccc2[nH]1)N1C[C@@H](CCl)c2c1cc(OCc1ccccc1)c1ccccc21 [OBn-CBI-AZI],IC50,"[1]; initial screening, A549 and HeLa cell lines",> 1000 nM
same,IC50(HeLa)/IC50(A549),[1],1.8
same,IC50,[1]; [11],750 nM
same,outcome at 10 mg/kg single dose,[5],not lethal
same,GI50,[3]; 786-0,270 nM
same,GI50,[3]; A498,380 nM
same,GI50,[3]; A549/ATCC,160 nM
same,GI50,[3]; ACHN,35 nM
same,GI50,[3]; CAKI-1,190 nM
same,GI50,[3]; CCRF-CEM,410 nM
same,GI50,[3]; COLO 205,280 nM
same,GI50,[3]; EKVX,370 nM
same,GI50,[3]; HCC-2998,320 nM
same,GI50,[3]; HCT-15,130 nM
same,GI50,[3]; HCT-116,640 nM
same,GI50,[3]; HL-60(TB),440 nM
same,GI50,[3]; HOP-62,140 nM
same,GI50,[3]; HOP-92,500 nM
same,GI50,[3]; HT29,270 nM
same,GI50,[3]; IGROV1,190 nM
same,GI50,[3]; K-562,250 nM
same,GI50,[3]; KM12,810 nM
same,GI50,[3]; LOX IMVI,56 nM
same,GI50,[3]; M14,210 nM
same,GI50,[3]; MALME-3M,280 nM
same,GI50,[3]; MDA-MB-231,3070 nM
same,GI50,[3]; MDA-MB-435,330 nM
same,GI50,[3]; MOLT-4,270 nM
same,GI50,[3]; NCI-H23,73 nM
same,GI50,[3]; NCI-H226,210 nM
same,GI50,[3]; NCI-H460,17 nM
same,GI50,[3]; NCI-H522,380 nM
same,GI50,[3]; OVCAR-3,500 nM
same,GI50,[3]; OVCAR-4,540 nM
same,GI50,[3]; OVCAR-5,340 nM
same,GI50,[3]; OVCAR-8,240 nM
same,GI50,[3]; RPMI-8226,500 nM
same,GI50,[3]; RXF 393,230 nM
same,GI50,[3]; SF-268,330 nM
same,GI50,[3]; SF-295,46 nM
same,GI50,[3]; SF-539,290 nM
same,GI50,[3]; SK-MEL-2,370 nM
same,GI50,[3]; SK-MEL-5,270 nM
same,GI50,[3]; SK-MEL-28,330 nM
same,GI50,[3]; SK-OV-3,450 nM
same,GI50,[3]; SN12C,360 nM
same,GI50,[3]; SNB-19,330 nM
same,GI50,[3]; SR,44 nM
same,GI50,[3]; SW-620,260 nM
same,GI50,[3]; TK-10,560 nM
same,GI50,[3]; U251,61 nM
same,GI50,[3]; UACC-62,62 nM
same,GI50,[3]; UACC-257,390 nM
same,GI50,[3]; UO-31,260 nM
same,IC50,[4],420 nM
CN(C(=O)Oc1cc2c(c3ccccc13)[C@H](CCl)CN2C(=O)c1cc2cc(OCCCN3CCC3)ccc2[nH]1)[C@H]1CCSSC1 [SS60-CBI-AZI],IC50,"[1]; Homo sapiens, HeLa, 48 h, read-out: IC50(nM): HeLa",96 nM
same,IC50(HeLa)/IC50(A549),[1],0.8
same,outcome of repeated dosing at 3 mg/kg,[6]; once weekly,significant loss of body weight
same,outcome of repeated dosing at 1 mg/kg,[6]; treated twice a week,tolerated
same,released cargo in plasma,[7],"no released HO-CBI-AZI, or activated cyclopropane, or adducts, were detected"
same,half-life,"[7]; mouse, plasma, iv, HPLC-MS/MS",~20 min
same,IC50,[4]; Homo sapiens,120 nM
same,remarks,[8],adverse effects
"CCc1c2c(nc3ccc(OC(=O)N4CCC(N5CCCCC5)CC4)cc13)-c1cc3c(c(=O)n1C2)COC(=O)[C@]3(O)CC [irinotecan, reference compound]",effect on tumor growth,[9],failed to slow tumor growth
same,effect on tumor growth,[10],expected tumor-slowing effect

# From article PMC10141580, “Cyclic Dichalcogenides Extend the Reach of Bioreductive Prodrugs to Harness Thiol/Disulfide Oxidoreductases: Applications to seco-Duocarmycins Targeting the Thioredoxin System” (ACS Central Science, 2023)
